Results from PMC9504748, “Discovery of Flavonoids as Novel Inhibitors of ATP Citrate Lyase: Structure–Activity Relationship and Inhibition Profiles” (International Journal of Molecular Sciences, 2022).
Like-named read-outs stand apart in the source and are kept apart here. Each block holds one compound with its values, some of them ahead of it.

How the values were obtained:
[1] = system: mice fed on a high-fat diet; set-up: method as in PMID 17383874; conditions: cited from earlier work
ACLY [2] = molecular target: T1, ACLY (Homo sapiens, UniProt P53396); conditions: cited from earlier work
T1 construct: His; made in house; host or cells: Escherichia coli BL21(DE3)
T1 sequence (P53396 1-1101): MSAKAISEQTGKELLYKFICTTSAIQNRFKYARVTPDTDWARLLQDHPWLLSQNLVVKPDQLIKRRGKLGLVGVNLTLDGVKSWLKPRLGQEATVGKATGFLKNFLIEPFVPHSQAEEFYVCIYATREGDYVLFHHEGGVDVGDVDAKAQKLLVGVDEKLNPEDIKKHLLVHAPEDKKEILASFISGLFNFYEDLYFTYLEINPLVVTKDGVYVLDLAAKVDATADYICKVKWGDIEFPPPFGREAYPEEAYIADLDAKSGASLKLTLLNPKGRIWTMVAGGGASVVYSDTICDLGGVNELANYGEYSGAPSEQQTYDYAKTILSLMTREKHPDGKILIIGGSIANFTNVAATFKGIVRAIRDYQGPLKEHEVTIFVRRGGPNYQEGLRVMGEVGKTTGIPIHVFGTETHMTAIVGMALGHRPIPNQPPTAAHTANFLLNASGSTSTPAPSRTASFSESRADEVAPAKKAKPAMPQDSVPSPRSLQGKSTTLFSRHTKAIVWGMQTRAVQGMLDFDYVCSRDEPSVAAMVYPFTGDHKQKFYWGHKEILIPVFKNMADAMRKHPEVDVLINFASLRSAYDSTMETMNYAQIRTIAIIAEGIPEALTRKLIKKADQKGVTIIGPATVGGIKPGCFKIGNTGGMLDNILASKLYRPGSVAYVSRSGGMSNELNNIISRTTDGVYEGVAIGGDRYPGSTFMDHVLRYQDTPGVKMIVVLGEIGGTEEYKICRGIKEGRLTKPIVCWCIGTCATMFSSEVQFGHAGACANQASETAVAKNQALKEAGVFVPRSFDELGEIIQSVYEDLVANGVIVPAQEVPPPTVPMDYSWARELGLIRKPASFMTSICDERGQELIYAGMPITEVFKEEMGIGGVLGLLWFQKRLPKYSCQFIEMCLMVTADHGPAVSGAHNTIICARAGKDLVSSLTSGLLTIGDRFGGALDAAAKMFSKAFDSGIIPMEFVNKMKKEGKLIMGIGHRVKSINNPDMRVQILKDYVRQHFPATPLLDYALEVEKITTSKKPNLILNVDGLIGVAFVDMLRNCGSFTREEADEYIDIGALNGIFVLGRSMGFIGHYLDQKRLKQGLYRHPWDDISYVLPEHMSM

human ACLY = system: human ACLY; set-up: method as in PMID 30944472; conditions: cited from earlier work
ACLY [3] = molecular target: T1, ACLY; experiment: ACLY enzymatic inhibition assay (ADP-Glo Kinase Assay); format: biochemical; conditions: for IC50: concentration-response curves; for inhibition rate: preliminary screening, concentration of 10 µm;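 for all read-outs here: purified recombinant His-tagged human ACLY, compounds preincubated with enzyme 15 min, then ADP formed measured as luciferase luminescence after ADP-Glo reagent depletes leftover ATP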
ACLY [4] = molecular target: T1, ACLY; experiment: Thermal shift assay (Sypro Orange); format: binding; conditions: DMSO control 54.5 °C
Procedure: The thermal shift assay was conducted in a real-time PCR machine (Bio-Rad, Hercules, CA, USA). Sypro Orange fluorescent dye was used to monitor protein folding/unfolding. Purified ACLY and compound solutions were preincubated in low-profile PCR tubes for 15 min at room temperature, and then Sypro Orange was added and incubated for another 15 min on ice. The total volume was 20 μL. The final concentration of ACLY was 1.45 μM and Sypro Orange was 12.5×. The PCR tubes were heated from 25 to 90 °C at a heating rate of 0.5 °C/10 s. The fluorescence intensity changes in each well were recorded. Tm (transition midpoint) was read from the melting curve.

[5] = Cell-free aggregation assay (DMR, Epic BT system); format: physicochemical; conditions: for critical aggregation concentration (CAC): reaction buffer, DMR responses at a fixed time
Procedure: The aggregation assay was performed using an Epic BT system (Corning, NY, USA). Reaction buffer (30 μL) was aliquoted in an Epic 384-well microplate (Corning, NY, USA) and equilibrated for 1 h. Then 10 μL compound solution was added and the microplate was placed on the Epic reader. Dynamic mass redistribution (DMR) signals were recorded for 1 h.

ACLY [6] = molecular target: T1, ACLY; experiment: Enzymatic kinetic studies (Michaelis-Menten, Lineweaver-Burk); format: biochemical
Procedure: The inhibition profile of herbacetin against ACLY was determined by the Michaelis–Menten equation and Lineweaver–Burk curve. Reaction rates were recorded separately at different concentrations of substrates with various inhibitor concentrations. […] For competitive inhibition, Vmax is constant, Km decreases; for noncompetitive inhibition, Km is constant, Vmax decreases; for uncompetitive inhibition, both Vmax and Km decrease, while Km/Vmax is constant. Ki values could be calculated according to the following equations. [table]

ACLY [7] = molecular target: T1, ACLY; experiment: Western blotting analysis of ACLY thermal stability; format: binding
Procedure: Purified ACLY was preincubated with compounds or DMSO in tubes at room temperature for 15 min. The final concentration of ACLY was 0.58 μM. Then the solution was aliquoted into 200 μL PCR tubes and heated at the indicated temperature for 3 min. […] The SDS–PAGE samples were prepared in 1× loading buffer. A separation gel (8%) and stacking gel (5%) were used to separate and transfer target proteins onto PVDF membranes (0.45 μm). The membranes were blocked at room temperature for 1 h with a blocking solution (Beyotime, Shanghai, China), followed by addition of a primary antibody at room temperature for another 2 h. HRP-linked IgG was used as the secondary antibody and incubated at room temperature for 1 h. Protein bands were imaged by molecular imager ChemiDoc XRS+ (Bio-rad, Hercules, CA, USA).

[8] = natural ACLY inhibitors, discussion, no reference given

Compound: COc1ccc(-c2ccccc2)cc1NS(=O)(=O)c1cc(Cl)cc(Cl)c1O [BMS–303141]
plasma cholesterol, triglyceride and glucose levels [1]: lowered plasma cholesterol, triglyceride and glucose levels

Compound: O=C(O)CC(O)(C(=O)O)C(O)C(=O)O (centres unmarked) [Hydroxycitric acid]
Ki (ACLY [2]): 3000 nM
Ki (ACLY [2]; [8]): 300000 nM

Compound: COC(=O)c1cc(Cl)c(O)c(S(=O)(=O)Nc2cc(-c3ccccc3)c(F)cc2F)c1 [NDI–091143]
potency (human ACLY): nanomolar potency

Compound: O=C(O)[C@H]1O[C@@H](Oc2cc(O)c3c(=O)cc(-c4ccc(O)c(O)c4)oc3c2)[C@H](O)[C@@H](O)[C@@H]1O [compound 5, Luteolin 7-O-glucuronide]
IC50 (ACLY [3]): 1470 ± 200 nM

Compound: O=c1c(O[C@@H]2O[C@H](CO)[C@H](O)[C@H](O)[C@H]2O)c(-c2ccc(O)c(O)c2)oc2cc(O)cc(O)c12 [compound 6, Hyperoside]
IC50 (ACLY [3]): 1530 ± 80 nM

Compound: O=c1cc(-c2ccc(O)c(O)c2)oc2cc(O)c([C@@H]3O[C@H](CO)[C@@H](O)[C@H](O)[C@H]3O)c(O)c12 [compound 14, Isoorientin]
IC50 (ACLY [3]): 1860 ± 290 nM

Compound: C[C@@H]1O[C@@H](O[C@H]2[C@H](Oc3cc(O)c4c(=O)cc(-c5ccc(O)c(O)c5)oc4c3)O[C@H](CO)[C@@H](O)[C@@H]2O)[C@H](O)[C@H](O)[C@H]1O [compound 15, Lonicerin]
IC50 (ACLY [3]): 1430 ± 440 nM

Compound: O=c1c(O)c(-c2ccc(O)cc2)oc2c(O)c(O)cc(O)c12 [compound 18, Herbacetin]
Tm of ACLY (ACLY [4]; 40 μM herbacetin): 55.5 °C
Tm of ACLY (ACLY [4]; 200 μM herbacetin): 56.5 °C
IC50 (ACLY [3]): 500 ± 80 nM
inhibition rate (ACLY [3]): 96.07%
fold more active compared with kaempferol (ACLY [3]; ratio of IC50 values): 20 fold
DMR responses (aggregation state) ([5]; up to 100 μM): negligible DMR responses
Ki (ACLY [6]; ATP as substrate): 290 nM
Ki (ACLY [6]; CoA as substrate): 190 nM
Ki (ACLY [6]; citric acid (CA) as substrate): 110 nM
inhibition pattern (ACLY [6]; towards CA, ATP and CoA): noncompetitive inhibitor
stability of ACLY at a temperature gradient vs control (ACLY [7]; 200 μM, significant at 52, 57, 60 and 62 °C): more stable
isothermal dose-response of ACLY stability (ACLY [7]; 57 °C, different concentrations): concentration–dependent effect

Compound: O=C1c2c(O)cc(O)cc2OC(c2ccc(O)c(O)c2)C1O (centres unmarked) [compound 19, Taxifolin]
IC50 (ACLY [3]): 2540 ± 250 nM

Compound: O=c1c(O[C@@H]2O[C@H](CO)[C@@H](O)[C@H](O)[C@H]2O)c(-c2ccc(O)c(O)c2)oc2cc(O)cc(O)c12 [compound 20, Isoquercetin]
IC50 (ACLY [3]): 2140 ± 120 nM

Compound: O=c1c(O)c(-c2ccc(O)c(O)c2)oc2cc(O)cc(O)c12 [compound 29, Quercetin]
IC50 (ACLY [3]): 860 ± 50 nM
inhibition rate (ACLY [3]): 91.09%
fold more active compared with kaempferol (ACLY [3]; ratio of IC50 values): 10 fold
critical aggregation concentration (CAC) [5]: 6.47 µM

Compound: COc1cc(-c2oc3cc(O)cc(O)c3c(=O)c2O)ccc1O [compound 44, Isorhamnetin]
IC50 (ACLY [3]): 49700 ± 14800 nM

Compound: O=C(O)[C@H]1O[C@@H](Oc2cc3oc(-c4ccc(O)cc4)cc(=O)c3c(O)c2O)[C@H](O)[C@@H](O)[C@@H]1O [compound 53, Scutellarin]
IC50 (ACLY [3]): 3770 ± 260 nM

Compound: O=c1c(O)c(-c2cc(O)c(O)c(O)c2)oc2cc(O)cc(O)c12 [compound 89, Myricetin]
IC50 (ACLY [3]): 570 ± 30 nM
critical aggregation concentration (CAC) [5]: 1.82 µM

Compound: O=C(/C=C/c1ccc(O)c(O)c1)O[C@@H]1C[C@](O)(C(=O)O)C[C@@H](OC(=O)/C=C/c2ccc(O)c(O)c2)[C@H]1O [isochlorogenic acid A]
IC50 (ACLY [2]; [8]): 100 nM

Compound: C[C@@H]1C[C@H]2O[C@@H]2/C=C\C=C\C(=O)Cc2c(Cl)c(O)cc(O)c2C(=O)O1 [radicicol]
Ki (ACLY [2]; [8]): 10000 nM

Compound: anthrone
IC50 (ACLY [2]; [8]): 280 nM

Compound: antimycin
Ki (ACLY [2]; [8]): 4000 nM

Now from value to compound:

IC50 (ACLY [3]): 19100 ± 11600 nM
Compound: O=c1cc(-c2ccc(O)cc2)oc2cc(O)cc(O)c12 [compound 21, Apigenin]

IC50 (ACLY [3]): 10200 ± 1070 nM
Compound: O=c1c(O)c(-c2ccc(O)cc2)oc2cc(O)cc(O)c12 [compound 30, Kaempferol]

IC50 (ACLY [3]): 640 ± 130 nM
inhibition rate (ACLY [3]): 88.28%
activity fold higher than that of apigenin (ACLY [3]; ratio of IC50 values): 30 fold
Compound: O=c1cc(-c2ccc(O)c(O)c2)oc2cc(O)cc(O)c12 [compound 51, Luteolin]

IC50 (ACLY [3]): 710 ± 60 nM
inhibition rate (ACLY [3]): 91.80%
Compound: O=c1cc(-c2ccc(O)cc2)oc2cc(O)c(O)c(O)c12 [compound 52, Scutellarein]

IC50 (ACLY [3]): 23600 ± 19200 nM
Compound: Oc1cc(O)c2c(c1)OC(c1ccc(O)c(O)c1)C(O)C2 (centres unmarked) [compound 73, Catechin]

IC50 (ACLY [3]): 1290 ± 140 nM
Compound: Oc1cc(O)c2cc(O)c(-c3ccc(O)c(O)c3)[o+]c2c1 [compound 74, Cyanidin]

IC50 (ACLY [3]): 31600 ± 9450 nM
Compound: Oc1cc(O)c2c(c1)O[C@H](c1ccc(O)c(O)c1)[C@H](O)C2 [compound 75, Epicatechin]

IC50 (ACLY [3]): 4070 ± 690 nM
Compound: O=c1c(O)c(-c2ccc(O)cc2O)oc2cc(O)cc(O)c12 [compound 87, Morin]

IC50 (ACLY [3]): 310 ± 20 nM
Compound: O=c1c(O)c(-c2ccc(O)c(O)c2)oc2c(O)c(O)cc(O)c12 [compound 93, Gossypetin]

IC50 (ACLY [3]): 570 ± 90 nM
Compound: C[C@@H]1O[C@@H](Oc2cc(O)c3c(=O)c(O)c(-c4ccc(O)c(O)c4)oc3c2)[C@H](O)[C@H](O)[C@H]1O [compound 106, 7-(α-L-Rhamnopyranosyloxy)-2-(3,4-dihydroxyphenyl)-3,5-dihydroxy-4H-1-benzopyran-4-one]
